From patent publication US11136320B2, “Fused ring derivative used as FGFR4 inhibitor” (JACOBIO PHARMACEUTICALS CO., LTD., priority 2019, dated 2021)
Read-outs that look alike come from different tables or passages of the source.

Test: PK/PD of NOD-SCID mouse (drug concentration in blood and in tumors)
Format: in vivo
Details: for AUC(0-inf) / Cmax / Tmax / half-life / AUC(0-t) / concentration at 4 h / concentration at 6 h: NOD-SCID, mouse, po, 50 mg/kg, p.o. (50 mg/kg); for AUC(0-inf) / Cmax / Tmax / half-life / AUC(0-t): plasma; for AUC(0-t): read-out: AUC0-6 h; for concentration at 4 h / concentration at 6 h: tumor
Description: This experiment conducted when the pharmacological experiment in vivo was performed by gavage administration, wherein, the blood samples and tumor samples were taken at different time points to detect drug concentration in blood and drug concentrations in tumors.
(1) Mode of administration: gavage administration;
(2) Dosage: 50 mg/kg in the gavage administration;
Three mice were sampled at each sampling point;
(4) Blood sample collection: 200 μL of orbital blood was collected at sampling time point for each blood sample. After anticoagulation with heparin, the blood was centrifuged at 5500 rpm for 10 mins. 60 μL of the supernatant was taken and put it into the refrigerator at −80° C. for waiting for testing.
Tumour sample collection: 200-300 mg of each tumor tissue was taken. The tumor weight was marked, quickly freezed in liquid nitrogen and placed into a refrigerator at −80° C. for waiting for testing.
Tumour sample processing: pure water was added into the tumor sample according to a ratio of […] between the weight of the tumor sample and the volume of pure water and then it was homogenized. The homogenate was stored at −90° C. to −60° C. until the sample was analyzed. After 5 μL of acetonitrile/water (v/v=1:1) was added into 50 μL of tumor sample homogenate, 200 μL of acetonitrile (containing Dexamethasone 100 ng/ml as internal standard, or containing Verapamil 2 ng/ml as internal standard) was added. After protein precipitation, the resulting mixture was vortexed for 2 mins at 4° C. with 4600 g, and then centrifuged for 15 mins to obtain the supernatant. 100 μL of the supernatant was taken and added into 200 μL of deionized water. 5500 LC/MS/MS analyser was used for sample injection and analysis, after vortexing for homogeneity. The conditions for chromatographic separation and mass spectrometric analysis were as follows: […]

Compound: CSC[C@@H](C)Nc1cc(NC(=O)N2CCCc3cc(CN4CCN(C)CC4=O)c(C=O)nc32)ncc1C#N [Compound 4, (R)—N-(5-Cyano-4-((1-(methylthio)propan-2-yl)amino)pyridin-2-yl)-7-formyl-6-((4-methyl-2-oxopiperazin-1-yl)methyl)-3,4-dihydro-1,8-naphthyridine-1 (2H)-carboxamide]
- content in tumor tissue relative to the reference compound (Hep3B model, 4 h or 6 h): more than 15 times
- AUC(0-inf) (Hep3B model): 3360 ng·h/mL
- Cmax (Hep3B model): 1020 ng/mL
- Tmax (Hep3B model): 2 h
- half-life (Hep3B model): 1.48 h
- AUC(0-t) (Hep3B model): 3020 ng·h/mL
- AUC(0-inf) (SNU878 model): 4260 ng·h/mL
- Cmax (SNU878 model): 1230 ng/mL
- Tmax (SNU878 model): 1 h
- half-life (SNU878 model): 2.3 h
- AUC(0-t) (SNU878 model): 3530 ng·h/mL
- concentration at 4 h (Hep3B model): 1210 ng/g
- concentration at 6 h (Hep3B model, 6 h): 673 ng/g
- concentration at 4 h (SNU878 model): 2340 ng/g
- concentration at 6 h (SNU878 model, 6 h): 1950 ng/g
- content in tumor tissue relative to the reference compound (SNU878 model, 6 h): about twice
